Measured values: patent publication US20200339537A1, “NOVEL COMPOUND AS INHIBITOR AGAINST BINDING OF PF34 PROTEIN TO NEDD4-1 PROTEIN AND USE THEREOF” (ENHANCEDBIO INC., priority 2017, published 2020)

Legend:
[1] = target: T1, binding between p34 protein and NEDD4-1 protein (Homo sapiens, UniProt P46934+Q9UHV2); test: Inhibitory activity on binding between p34 and NEDD4-1, FRET (HTRF) assay; settings: pH 7.4, compound 10 μM; 1×PBS pH 7.4, 0.1% BSA, 2% DMSO; 384-well
T1 construct: FLAG or 6xHis (known only from the detection antibodies)
T1 sequence (P46934 1-1319): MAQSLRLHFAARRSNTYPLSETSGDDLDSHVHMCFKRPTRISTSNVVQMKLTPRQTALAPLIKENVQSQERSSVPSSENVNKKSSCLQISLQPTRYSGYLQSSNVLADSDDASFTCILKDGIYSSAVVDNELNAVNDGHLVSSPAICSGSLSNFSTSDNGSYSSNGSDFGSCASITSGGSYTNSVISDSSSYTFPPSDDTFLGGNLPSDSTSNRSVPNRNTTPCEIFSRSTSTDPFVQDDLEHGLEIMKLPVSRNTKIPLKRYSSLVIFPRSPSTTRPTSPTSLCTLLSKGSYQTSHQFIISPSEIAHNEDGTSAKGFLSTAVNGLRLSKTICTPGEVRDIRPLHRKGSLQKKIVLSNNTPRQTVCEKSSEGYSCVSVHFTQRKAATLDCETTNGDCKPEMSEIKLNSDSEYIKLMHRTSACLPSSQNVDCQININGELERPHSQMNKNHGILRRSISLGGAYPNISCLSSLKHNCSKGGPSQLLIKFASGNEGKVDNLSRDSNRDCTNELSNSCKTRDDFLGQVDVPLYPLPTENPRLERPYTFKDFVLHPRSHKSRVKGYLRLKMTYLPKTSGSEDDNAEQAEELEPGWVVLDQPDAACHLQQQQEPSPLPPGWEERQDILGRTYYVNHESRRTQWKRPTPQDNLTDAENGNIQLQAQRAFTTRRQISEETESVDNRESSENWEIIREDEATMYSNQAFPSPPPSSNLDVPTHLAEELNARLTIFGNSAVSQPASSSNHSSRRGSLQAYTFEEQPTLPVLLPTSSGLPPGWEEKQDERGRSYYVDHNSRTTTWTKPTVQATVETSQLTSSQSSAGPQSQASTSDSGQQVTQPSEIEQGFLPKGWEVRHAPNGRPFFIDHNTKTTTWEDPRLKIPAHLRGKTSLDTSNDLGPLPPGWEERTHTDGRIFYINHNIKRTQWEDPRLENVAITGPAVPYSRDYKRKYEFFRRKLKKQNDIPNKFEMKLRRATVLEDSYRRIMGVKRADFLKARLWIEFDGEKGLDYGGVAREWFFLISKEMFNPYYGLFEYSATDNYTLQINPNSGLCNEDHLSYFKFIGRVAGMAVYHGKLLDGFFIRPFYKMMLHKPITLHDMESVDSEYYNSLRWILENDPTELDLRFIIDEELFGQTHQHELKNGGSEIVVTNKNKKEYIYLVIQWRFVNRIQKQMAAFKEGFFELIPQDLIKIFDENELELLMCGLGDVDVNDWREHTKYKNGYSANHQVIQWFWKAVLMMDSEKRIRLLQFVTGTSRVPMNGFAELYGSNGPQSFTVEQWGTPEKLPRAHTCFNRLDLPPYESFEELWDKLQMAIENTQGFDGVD
T1 sequence (Q9UHV2 1-236): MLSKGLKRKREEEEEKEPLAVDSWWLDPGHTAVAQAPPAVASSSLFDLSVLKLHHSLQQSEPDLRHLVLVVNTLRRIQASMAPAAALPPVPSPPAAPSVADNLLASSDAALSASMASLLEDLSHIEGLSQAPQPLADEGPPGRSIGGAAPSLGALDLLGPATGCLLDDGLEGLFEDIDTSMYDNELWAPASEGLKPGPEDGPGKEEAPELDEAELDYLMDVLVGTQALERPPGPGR
Experimental: Inhibitory activity of the compound on binding between p34 and NEDD4-1 was evaluated using p34 protein and NEDD4-1 protein based on the HTRF technology developed by Cisbio. In this assay, a fluorescence resonance energy transfer (FRET) signal was measured in the presence of terbium-labeled anti-FLAG antibody and d2-labeled anti-6XHis antibody. Experiments were performed in 384-well plates under a condition of 1×PBS pH 7.4, 0.1% BSA, and 2% DMSO. A background signal was measured in the absence of the p34-NEDD4-1 proteins, and a non-inhibiting signal was measured with addition of only a solvent (2% DMSO). […] Subsequently, inhibitory activity of the compound on p34-NEDD4-1 was calculated in %.

[2] = system: PTEN (lipid phosphatase activity) in human colon cancer cell line SW620; test: cells; format: cell-based; settings: Homo sapiens, SW-620, 48 h, compound 5 μM, PTEN immunoprecipitation, diC8-PIP3 substrate, Biomol Green, read-out: PTEN activity (relative fold @5 μM)

| Compound | inhibition at 10 µM [1] | fold induction at 5 µM [2] |
| --- | --- | --- |
| O=C(NCc1cncs1)C1CCN(Cc2c[nH]c3ccc(C(F)(F)F)cc23)CC1 [Example 31] | 58.6% | 1.5 |
| O=C(NCc1nc2ccccc2o1)C1CCN(Cc2c[nH]c3ccc(C(F)(F)F)cc23)CC1 [Example 32] | 61.1% | 1.8 |
| O=C(NC(Cc1ccccc1)c1nc2ccccc2[nH]1)C1CCN(Cc2c[nH]c3ccc(C(F)(F)F)cc23)CC1 (stereo not drawn) [Example 33] | 41.2% | 2.5 |
| CC(NC(=O)C1CCN(Cc2c[nH]c3ccc(C(F)(F)F)cc23)CC1)c1nc2ccccc2[nH]1 (stereo not drawn) [Example 34] | 59.6% | 1.9 |
| CCC(NC(=O)C1CCN(Cc2c[nH]c3ccc(C(F)(F)F)cc23)CC1)c1nc2ccccc2[nH]1 (stereo not drawn) [Example 35] | 45.5% | 1.5 |
| O=C(NCc1nc2cc(F)ccc2[nH]1)C1CCN(Cc2c[nH]c3ccc(C(F)(F)F)cc23)CC1 [Example 37] | 39.4% | 1.5 |
| O=C(NCc1nc2cc(F)c(F)cc2[nH]1)C1CCN(Cc2c[nH]c3ccc(C(F)(F)F)cc23)CC1 [Example 39] | 37.7% | 1.6 |
| O=C(NCc1nc2ccccc2[nH]1)C1CCN(Cc2c[nH]c3ccc(Cl)cc23)CC1 [Example 45] | 33.8% | 2.8 |
| O=C(NCc1nc2ccccc2[nH]1)C1CCN(Cc2c[nH]c3ccccc23)CC1 [Example 61] | 52.3% | 2.1 |
| O=C(Nc1ccc(C(F)(F)F)cc1)N1CCN(Cc2ccc3[nH]ccc3c2)CC1 [Example 68] | 49.6% | 1.8 |
| Cc1ccc2[nH]c(CNC(=O)N3CCN(Cc4c[nH]c5ccc(Cl)cc45)CC3)nc2c1 [Example 71] | 33.7% | 1.8 |
| O=C(Nc1ccccn1)N1CCN(Cc2ccc3[nH]ccc3c2)CC1 [Example 72] | 55.5% | 1.9 |
| O=C(Nc1ncccn1)N1CCN(Cc2ccc3[nH]ccc3c2)CC1 [Example 73] | 53.5% | 2.1 |
| O=C(Nc1ccccc1)N1CCN(Cc2ccc3[nH]ccc3c2)CC1 [Example 77] | 35.3% | 1.8 |
| O=C(NCc1nccs1)N1CCN(Cc2n[nH]c3ccccc23)CC1 [Example 79] | 54.4% | 2.2 |
| O=C(NCc1nccs1)N1CCN(Cc2ccc3[nH]ccc3c2)CC1 [Example 80] | 49.7% | 2.1 |
| O=C(NCc1nccs1)N1CCN(Cc2c[nH]c3ccc(F)cc23)CC1 [Example 81] | 50.7% | 2.2 |
| O=C(NCc1nccs1)N1CCN(Cc2ccc3cc[nH]c3c2)CC1 [Example 82] | 47.2% | 1.7 |
| O=C(NCc1cncs1)N1CCN(Cc2n[nH]c3ccccc23)CC1 [Example 83] | 41.3% | 1.9 |
| O=C(NCc1cncs1)N1CCN(Cc2ccc3[nH]ccc3c2)CC1 [Example 84] | 44.1% | 2.9 |
| O=C(NCc1cncs1)N1CCN(Cc2c[nH]c3ccc(Cl)cc23)CC1 [Example 85] | 44% | 1.9 |
| O=C(NCc1cncs1)N1CCN(Cc2c[nH]c3ccc(F)cc23)CC1 [Example 86] | 41.6% | 2 |
| O=C(NCc1cncs1)N1CCN(Cc2ccc3cc[nH]c3c2)CC1 [Example 87] | 48.7% | 1.9 |
| Cc1[nH]c2ccc(CN3CCN(C(=O)NCc4cncs4)CC3)cc2c1C [Example 89] | 31.5% | 2 |
